According to patent publication US20200068890A1 (Person to Whom the Inventor is Obligated to Assign, priority 2017, published 2020):
Where two headings read alike, the source gives them in different places.

Key:
[1] = system: Pseudomonas aeruginosa 13437; test: Broth microdilution MIC; assay type: cell-based
Description: (§1) Assays were carried out by a broth microdilution method using a 96-well plate according to guidelines defined by the European Committee on Antimicrobial Susceptibility Testing as described here. Overnight cultures of strains were grown in tryptic soy broth (TSB) at 37° C. The overnight cultures were diluted to a concentration of 1×10^6 bacteria/ml (OD600=0.01) in TSB media. To each well on 96 well plates, 100 μl of bacterially infected media at a concentration of 1×10^6/ml and compounds at various concentrations were added. An uninfected control (i.e. no bacteria) was also included. The plates were incubated at 37° C. wrapped in parafilm for 20 hrs. The growth was assessed by measuring the absorbance at 600 nm. The minimum inhibitory concentration (MIC) was determined to be the lowest concentration of compound that inhibits visible bacterial growth.

[2] = system: Klebsiella pneumoniae 13368; test: Broth microdilution MIC; assay type: cell-based
Description: as §1

[3] = system: Enterococcus faecium 12204; test: Broth microdilution MIC; assay type: cell-based
Description: as §1

[4] = system: Enterococcus faecalis 12201; test: Broth microdilution MIC; assay type: cell-based
Description: as §1

[5] = system: Enterococcus faecalis 775; test: Broth microdilution MIC; assay type: cell-based
Description: as §1

[6] = system: EMRSA-15; test: Broth microdilution MIC; assay type: cell-based
Description: as §1

[7] = system: Acinetobacter baumannii 17978; test: Broth microdilution MIC; assay type: cell-based
Description: as §1

[8] = system: Acinetobacter baumannii AYE; test: Broth microdilution MIC; assay type: cell-based
Description: as §1

[9] = system: Escherichia coli NCTC12923; test: Broth microdilution MIC; assay type: cell-based
Description: as §1

[10] = system: Klebsiella pneumoniae M6; test: Broth microdilution MIC; assay type: cell-based
Description: as §1

[11] = system: MSSA 9144; test: Broth microdilution MIC; assay type: cell-based; settings: Staphylococcus aureus
Description: as §1

[12] = system: Pseudomonas aeruginosa PA01; test: Broth microdilution MIC; assay type: cell-based
Description: as §1

[13] = system: EMRSA-16; test: Broth microdilution MIC; assay type: cell-based
Description: as §1

[14] = system: T1, A. thaliana DHDPS; test: DHDPS-DHDPR coupled assay, dose response inhibitor assay; assay type: biochemical, Arabidopsis thaliana
T1 construct: AtDHDPS|10|0.00008; no borders, domain or tags given
Description: DHDPS enzyme activity was determined using the coupled assay in a Cary 4000 UV/Vis spectrophotometer at 340 nm in 1 cm acrylic cuvettes. A master mix was prepared for each reaction as per Table 1. Reaction mixtures containing enzymes, pyruvate, buffer and NADPH were incubated at 30° C. for 12 mins before the addition of ASA to initiate the reaction. The oxidation of NADPH to NADP^+ was then monitored at 340 nm at 30° C. as a function of time. The initial rate (ΔA340·min^−1) was calculated from the slope of the linear portion of the A340 versus time profile. All experiments were carried out in triplicate. The enzyme kinetic parameters, including KM values, were determined using the Michaelis-Menten equation (Equation 1). Unless otherwise stated, all kinetic data were fitted using the built-in equations in GraphPad Prism.
To determine/C50 values for the inhibitors, A. thaliana DHDPS enzyme activity was measured using the coupled assay (detailed above) in the presence of increasing concentrations of inhibitor. The initial rate was then plotted as a function of the log 10 of the inhibitor concentration and the/C50 determined according to Equation 2.

[15] = system: Gram-positive and Gram-negative bacterial species; test: Broth microdilution MIC, panel summary; assay type: cell-based; settings: read-out: MIC values
Description: as §1

O=C(O)CN1C(=O)S/C(=C\c2ccc(F)cc2)C1=O [Compound 1, (Z)-2-(5-(4-Fluorobenzylidene)-2,4-dioxothiazolidin-3-yl)acetic Acid]
MIC ([1]; Pseudomonas aeruginosa 13437, replicate 1, read-out: MIC #1): > 64 mg/L
MIC ([1]; Pseudomonas aeruginosa 13437, replicate 2, read-out: MIC #2): > 64 mg/L
MIC ([1]; Pseudomonas aeruginosa 13437, replicate 3, read-out: MIC #3): > 64 mg/L
MIC ([2]; Klebsiella pneumoniae 13368, replicate 1, read-out: MIC #1): > 64 mg/L
MIC ([2]; Klebsiella pneumoniae 13368, replicate 2, read-out: MIC #2): > 64 mg/L
MIC ([2]; Klebsiella pneumoniae 13368, replicate 3, read-out: MIC #3): > 64 mg/L
MIC ([3]; Enterococcus faecium 12204, replicate 1, read-out: MIC #1): > 64 mg/L
MIC ([3]; Enterococcus faecium 12204, replicate 2, read-out: MIC #2): > 64 mg/L
MIC ([3]; Enterococcus faecium 12204, replicate 3, read-out: MIC #3): > 64 mg/L
MIC ([4]; Enterococcus faecalis 12201, replicate 1, read-out: MIC #1): > 64 mg/L
MIC ([4]; Enterococcus faecalis 12201, replicate 2, read-out: MIC #2): > 64 mg/L
MIC ([4]; Enterococcus faecalis 12201, replicate 3, read-out: MIC #3): > 64 mg/L
MIC ([5]; Enterococcus faecalis 775, replicate 1, read-out: MIC #1): > 64 mg/L
MIC ([5]; Enterococcus faecalis 775, replicate 2, read-out: MIC #2): > 64 mg/L
MIC ([5]; Enterococcus faecalis 775, replicate 3, read-out: MIC #3): > 64 mg/L
MIC ([6]; EMRSA-15, replicate 1, read-out: MIC #1): > 64 mg/L
MIC ([6]; EMRSA-15, replicate 2, read-out: MIC #2): > 64 mg/L
MIC ([6]; EMRSA-15, replicate 3, read-out: MIC #3): > 64 mg/L
MIC ([7]; Acinetobacter baumannii 17978, replicate 1, read-out: MIC #1): > 64 mg/L
MIC ([7]; Acinetobacter baumannii 17978, replicate 2, read-out: MIC #2): > 64 mg/L
MIC ([7]; Acinetobacter baumannii 17978, replicate 3, read-out: MIC #3): > 64 mg/L
MIC ([8]; replicate 1, read-out: MIC #1): > 64 mg/L
MIC ([8]; replicate 2, read-out: MIC #2): > 64 mg/L
MIC ([8]; replicate 3, read-out: MIC #3): > 64 mg/L
MIC ([9]; Escherichia coli NCTC12923, replicate 1, read-out: MIC #1): > 64 mg/L
MIC ([9]; Escherichia coli NCTC12923, replicate 2, read-out: MIC #2): > 64 mg/L
MIC ([9]; Escherichia coli NCTC12923, replicate 3, read-out: MIC #3): > 64 mg/L
MIC ([10]; Klebsiella pneumoniae M6, replicate 1, read-out: MIC #1): > 64 mg/L
MIC ([10]; Klebsiella pneumoniae M6, replicate 2, read-out: MIC #2): > 64 mg/L
MIC ([10]; Klebsiella pneumoniae M6, replicate 3, read-out: MIC #3): > 64 mg/L
MIC ([11]; MSSA 9144, replicate 1, read-out: MIC #1): > 64 mg/L
MIC ([11]; MSSA 9144, replicate 2, read-out: MIC #2): > 64 mg/L
MIC ([11]; MSSA 9144, replicate 3, read-out: MIC #3): > 64 mg/L
MIC ([12]; Pseudomonas aeruginosa PA01, replicate 1, read-out: MIC #1): > 64 mg/L
MIC ([12]; Pseudomonas aeruginosa PA01, replicate 2, read-out: MIC #2): > 64 mg/L
MIC ([12]; Pseudomonas aeruginosa PA01, replicate 3, read-out: MIC #3): > 64 mg/L
MIC ([13]; EMRSA-16, replicate 1, read-out: MIC #1): > 64 mg/L
MIC ([13]; EMRSA-16, replicate 2, read-out: MIC #2): > 64 mg/L
MIC ([13]; EMRSA-16, replicate 3, read-out: MIC #3): > 64 mg/L
IC50 [14]: 92.4 µM
MIC [15]: > 64 mg/L
